Experiment in all cases: DTP human tumour cell line panel, 48 h
For experiment [1], the system named is MALME-3M melanoma.
The test system of experiment [2] is 786-0 renal.
For experiment [3], the system named is SF-268 CNS.
The test system of experiment [4] is SK-MEL-5 melanoma.
Experiment [5] relates to SK-OV-3 ovarian.
Experiment [6] deals with TK-10 renal.
The test system of experiment [7] is HT29 colon.
Experiment [8] has as its system LOX IMVI melanoma.
In experiment [9] the test system is NCI-H460 lung.
The subject of experiment [10] is KM12 colon.

The structures appear in SMILES notation.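 96-well plates; 48 h exposure; 5 concentrations. Endpoints by linear interpolation between flanking doses. Not reached: highest tested concentration assigned. GI50 marks 50% less growth. TGI is the concentration that stops growth completely.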 A value given as a limit tells only on which side of the number the result lay.

The values that follow come from PubChem BioAssay (NCI).

For `COC(=O)c1sc(-n2cnc3cc(OC)c(OC)cc32)cc1OCc1ccccc1C(F)(F)F`, the GI50 in experiment [1] is more than 25 µM; in experiment [2], 10.8 µM; in experiment [3], 17.1 µM; in experiment [4] it was more than 25 µM; in experiment [5], more than 21.5 µM; in experiment [6], 11 µM. The GI50 in experiment [7] was more than 25 µM; in experiment [8], more than 25 µM; in experiment [9], 18.7 µM; in experiment [10], more than 25 µM. The TGI in experiment [1], in experiment [2], in experiment [3], in experiment [4], in experiment [5] and in experiment [6] was more than 25 µM each time. Also, the TGI in [7], in experiment [8], in [9] and in experiment [10] was more than 25 µM in each case.

`CC(=O)OC1(C(C)=O)CC2(c3ccccc3)OC1(c1ccccc1)c1ccccc12` (stereo not given): the TGI in experiment [1] is more than 100 µM; in [2], more than 100 µM; in [3], more than 100 µM; in experiment [4] it was 8.53 µM; in [5], more than 100 µM; in [6] it was more than 100 µM. In addition, the TGI in [7], in experiment [8], in [9] and in [10] was more than 100 µM in each case.

Turning to `OC[C@H]1C[C@](O)(c2ccccc2Cl)[C@@H](c2ccccc2Cl)O1`, the GI50 in experiment [1] was 21.6 µM; in [2], 26.1 µM; in experiment [3], 24.2 µM; in experiment [4], 17.1 µM; in [5] it was 23.6 µM; in experiment [6] it was 20.9 µM. Besides, the GI50 in experiment [7] is 17.2 µM; in experiment [8], 16.9 µM; in experiment [9], 19.8 µM; in experiment [10], 25.4 µM. Also, the TGI is 51.4 µM in experiment [1]; 68.5 µM in experiment [2]; more than 100 µM in experiment [3]; 31.6 µM in experiment [4]; 84.4 µM in [5]; 64.7 µM in experiment [6]. The TGI in [7] came to 42.1 µM; in experiment [8], 34.3 µM; in [9] it was 49.6 µM; in [10], 64.8 µM.

On to `CN1CCN(Cc2ccc(NC(=O)c3cncc(C#Cc4c(N)ncc5ccccc45)c3)cc2C(F)(F)F)CC1`, for which the GI50 in [1] is 0.31 µM; in experiment [2], 0.89 µM; in experiment [3], 0.723 µM; in experiment [4], 0.719 µM; in experiment [5], 1.13 µM; in [6], 0.919 µM. The GI50 in experiment [7] is 0.18 µM; in experiment [8], 0.348 µM; in experiment [9], 0.344 µM; in experiment [10] it was 0.005 µM. Besides, the TGI in [1] was determined as 0.979 µM; in experiment [2], 1.66 µM; in experiment [3], 1.56 µM; in experiment [4], 1.38 µM; in experiment [5] it was 2.01 µM; in [6], 1.66 µM. For the same compound, the TGI worked out at 1.04 µM in experiment [7], 0.979 µM in experiment [8], 1.04 µM in [9] and 0.618 µM in [10].

For the compound `O=C(Nc1c[nH]c(=O)[nH]c1=O)Oc1ccccc1`, the TGI in experiment [1], in experiment [2], in experiment [3], in experiment [4], in experiment [5] and in [6] was more than 100 µM throughout. Besides, the TGI in [7], in [8], in [9] and in experiment [10] was more than 100 µM in each case.

With `N#C/C(=C/c1ccc([N+](=O)[O-])o1)c1ccccc1`, the TGI in [1], in experiment [2], in [3], in experiment [4], in [5] and in experiment [6] was more than 100 µM each time. Moreover, the TGI in experiment [7], in [8], in experiment [9] and in experiment [10] was more than 100 µM in each case.

As to `Nc1nc(SCC#CCCl)c2[nH]cnc2n1`, the GI50 in experiment [1] is 4.81 µM; in experiment [2], 4.3 µM; in [3], 3.93 µM; in experiment [4], 3.11 µM; in [5] it was 7.56 µM; in experiment [6] it was 1.87 µM. In addition, the GI50 in [7] was 4.92 µM; in experiment [8], 2.97 µM; in experiment [9], 3.62 µM; in experiment [10], 6.14 µM. For the same compound, the TGI amounted to 24 µM in experiment [1]; 14.9 µM in experiment [2]; 18.6 µM in experiment [3]; 12.6 µM in experiment [4]; 27.6 µM in experiment [5]; 11.1 µM in experiment [6]. For the same compound, the TGI was 18.1 µM in [7], 11.8 µM in [8], 16.7 µM in [9] and 18.6 µM in [10].

As for `CCc1ccc([OH2+])c(C(=O)[O-])c1.CCc1ccc([OH2+])c(C(=O)[O-])c1.CCc1ccc([OH2+])c(C(=O)[O-])c1.CCc1ccc([OH2+])c(C(=O)[O-])c1.[Cu+2].[Cu+2]`, the GI50 is more than 100 µM in experiment [1]; more than 100 µM in [2]; more than 100 µM in [3]; 17.6 µM in [4]; 23.9 µM in experiment [5]; more than 85.8 µM in [6]. Besides, the GI50 is 44.7 µM in experiment [7], more than 100 µM in experiment [8], 52.6 µM in experiment [9] and 53.6 µM in experiment [10]. Besides, the TGI was more than 100 µM in experiment [1]; more than 100 µM in experiment [2]; more than 100 µM in experiment [3]; 42.9 µM in experiment [4]; more than 68.2 µM in experiment [5]; more than 100 µM in [6]. Also, the TGI in [7], in experiment [8], in experiment [9] and in experiment [10] was more than 100 µM in each case.
